According to ChEMBL document CHEMBL5137101, “Application of Selective SMARCA2/4 PROTAC for Mutant Cancer Therapy” (ACS Med Chem Lett, 2022):

Tests used:
Assay type in all cases: cell-based
[1] = target: von Hippel-Lindau disease tumor suppressor/SWI/SNF-related matrix-associated actin-dependent regulator of chromatin subfamily A member 2 (Homo sapiens) (UniProt P51531+P40337); assay: Protac activity at E3 ubiquitin-protein ligase/SMARCA2 in human VCaP cells assessed as SMARCA2 degradation at 100 nM incubated for 16 hrs by Western blot analysis relative to control
[2] = target: von Hippel-Lindau disease tumor suppressor/SWI/SNF-related matrix-associated actin-dependent regulator of chromatin subfamily A member 4 (Homo sapiens) (UniProt P51532+P40337); assay: Protac activity at E3 ubiquitin-protein ligase/SMARCA4 in human VCaP cells assessed as SMARCA4 degradation at 100 nM incubated for 16 hrs by Western blot analysis relative to control
[3] = target: von Hippel-Lindau disease tumor suppressor/SWI/SNF-related matrix-associated actin-dependent regulator of chromatin subfamily A member 2 (Homo sapiens, UniProt P40337+P51531); assay: Protac activity at E3 ubiquitin-protein ligase/SMARCA2 in human VCaP cells assessed as SMARCA2 degradation incubated for 16 hrs by Western blot analysis relative to control
[4] = target: von Hippel-Lindau disease tumor suppressor/SWI/SNF-related matrix-associated actin-dependent regulator of chromatin subfamily A member 4 (Homo sapiens, UniProt P40337+P51532); assay: Protac activity at E3 ubiquitin-protein ligase/SMARCA4 in human VCaP cells assessed as SMARCA4 degradation incubated for 16 hrs by Western blot analysis relative to control
Chain of von Hippel-Lindau disease tumor suppressor/SWI/SNF-related matrix-associated actin-dependent regulator of chromatin subfamily A member 4 (P51532 whole entry): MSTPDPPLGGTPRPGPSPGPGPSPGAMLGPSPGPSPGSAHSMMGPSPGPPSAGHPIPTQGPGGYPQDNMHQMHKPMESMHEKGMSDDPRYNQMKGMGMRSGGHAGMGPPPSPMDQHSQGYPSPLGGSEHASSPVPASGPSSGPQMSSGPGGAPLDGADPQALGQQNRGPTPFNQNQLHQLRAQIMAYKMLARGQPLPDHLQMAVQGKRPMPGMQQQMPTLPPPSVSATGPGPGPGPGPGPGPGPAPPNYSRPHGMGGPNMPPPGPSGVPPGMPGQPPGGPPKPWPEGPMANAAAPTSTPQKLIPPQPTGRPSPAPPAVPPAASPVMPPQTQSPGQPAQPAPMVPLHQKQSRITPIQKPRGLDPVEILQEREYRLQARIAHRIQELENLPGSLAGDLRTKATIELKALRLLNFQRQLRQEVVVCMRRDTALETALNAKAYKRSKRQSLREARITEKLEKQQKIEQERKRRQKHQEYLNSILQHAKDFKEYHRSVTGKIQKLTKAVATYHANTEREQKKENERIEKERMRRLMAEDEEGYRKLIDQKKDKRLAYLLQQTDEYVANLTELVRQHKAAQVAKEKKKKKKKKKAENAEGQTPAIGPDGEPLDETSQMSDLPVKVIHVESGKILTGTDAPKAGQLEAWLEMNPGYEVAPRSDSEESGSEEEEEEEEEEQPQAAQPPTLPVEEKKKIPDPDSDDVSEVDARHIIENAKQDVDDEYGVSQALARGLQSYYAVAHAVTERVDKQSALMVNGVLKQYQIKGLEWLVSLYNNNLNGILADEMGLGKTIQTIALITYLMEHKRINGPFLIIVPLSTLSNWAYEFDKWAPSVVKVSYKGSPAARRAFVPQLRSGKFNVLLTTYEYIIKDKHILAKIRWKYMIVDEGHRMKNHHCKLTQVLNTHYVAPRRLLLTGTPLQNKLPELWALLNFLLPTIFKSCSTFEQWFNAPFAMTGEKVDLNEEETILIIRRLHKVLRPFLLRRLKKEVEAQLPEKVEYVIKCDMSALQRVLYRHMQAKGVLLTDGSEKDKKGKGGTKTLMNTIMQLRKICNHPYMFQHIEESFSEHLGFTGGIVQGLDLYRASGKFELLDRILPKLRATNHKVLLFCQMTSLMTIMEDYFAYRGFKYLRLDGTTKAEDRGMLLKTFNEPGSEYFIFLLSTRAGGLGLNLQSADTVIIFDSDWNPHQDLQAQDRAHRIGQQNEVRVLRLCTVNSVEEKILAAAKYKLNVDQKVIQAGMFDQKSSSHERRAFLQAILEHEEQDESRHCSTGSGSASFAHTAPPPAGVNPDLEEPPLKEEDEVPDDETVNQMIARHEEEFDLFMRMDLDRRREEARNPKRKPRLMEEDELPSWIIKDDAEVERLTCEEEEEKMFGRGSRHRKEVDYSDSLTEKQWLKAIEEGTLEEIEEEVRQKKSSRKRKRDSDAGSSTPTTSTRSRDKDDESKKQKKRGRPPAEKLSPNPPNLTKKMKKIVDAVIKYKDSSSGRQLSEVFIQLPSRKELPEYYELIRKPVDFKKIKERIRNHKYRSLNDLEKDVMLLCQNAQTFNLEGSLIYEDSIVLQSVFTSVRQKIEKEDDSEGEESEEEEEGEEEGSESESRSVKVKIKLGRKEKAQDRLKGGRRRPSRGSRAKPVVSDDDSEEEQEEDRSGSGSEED
Chain of von Hippel-Lindau disease tumor suppressor/SWI/SNF-related matrix-associated actin-dependent regulator of chromatin subfamily A member 4 (P40337 whole entry): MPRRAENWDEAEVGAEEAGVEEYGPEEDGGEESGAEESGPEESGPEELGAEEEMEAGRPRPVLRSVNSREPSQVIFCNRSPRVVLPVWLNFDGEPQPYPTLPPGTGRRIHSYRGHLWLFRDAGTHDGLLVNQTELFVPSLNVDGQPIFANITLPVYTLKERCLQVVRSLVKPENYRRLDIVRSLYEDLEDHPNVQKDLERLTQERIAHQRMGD

Chain of von Hippel-Lindau disease tumor suppressor/SWI/SNF-related matrix-associated actin-dependent regulator of chromatin subfamily A member 2 (Homo sapiens) (P40337 whole entry, looked up): as the sequence (P40337 whole entry) above
Chain of von Hippel-Lindau disease tumor suppressor/SWI/SNF-related matrix-associated actin-dependent regulator of chromatin subfamily A member 2 (Homo sapiens) (P51531 whole entry, looked up): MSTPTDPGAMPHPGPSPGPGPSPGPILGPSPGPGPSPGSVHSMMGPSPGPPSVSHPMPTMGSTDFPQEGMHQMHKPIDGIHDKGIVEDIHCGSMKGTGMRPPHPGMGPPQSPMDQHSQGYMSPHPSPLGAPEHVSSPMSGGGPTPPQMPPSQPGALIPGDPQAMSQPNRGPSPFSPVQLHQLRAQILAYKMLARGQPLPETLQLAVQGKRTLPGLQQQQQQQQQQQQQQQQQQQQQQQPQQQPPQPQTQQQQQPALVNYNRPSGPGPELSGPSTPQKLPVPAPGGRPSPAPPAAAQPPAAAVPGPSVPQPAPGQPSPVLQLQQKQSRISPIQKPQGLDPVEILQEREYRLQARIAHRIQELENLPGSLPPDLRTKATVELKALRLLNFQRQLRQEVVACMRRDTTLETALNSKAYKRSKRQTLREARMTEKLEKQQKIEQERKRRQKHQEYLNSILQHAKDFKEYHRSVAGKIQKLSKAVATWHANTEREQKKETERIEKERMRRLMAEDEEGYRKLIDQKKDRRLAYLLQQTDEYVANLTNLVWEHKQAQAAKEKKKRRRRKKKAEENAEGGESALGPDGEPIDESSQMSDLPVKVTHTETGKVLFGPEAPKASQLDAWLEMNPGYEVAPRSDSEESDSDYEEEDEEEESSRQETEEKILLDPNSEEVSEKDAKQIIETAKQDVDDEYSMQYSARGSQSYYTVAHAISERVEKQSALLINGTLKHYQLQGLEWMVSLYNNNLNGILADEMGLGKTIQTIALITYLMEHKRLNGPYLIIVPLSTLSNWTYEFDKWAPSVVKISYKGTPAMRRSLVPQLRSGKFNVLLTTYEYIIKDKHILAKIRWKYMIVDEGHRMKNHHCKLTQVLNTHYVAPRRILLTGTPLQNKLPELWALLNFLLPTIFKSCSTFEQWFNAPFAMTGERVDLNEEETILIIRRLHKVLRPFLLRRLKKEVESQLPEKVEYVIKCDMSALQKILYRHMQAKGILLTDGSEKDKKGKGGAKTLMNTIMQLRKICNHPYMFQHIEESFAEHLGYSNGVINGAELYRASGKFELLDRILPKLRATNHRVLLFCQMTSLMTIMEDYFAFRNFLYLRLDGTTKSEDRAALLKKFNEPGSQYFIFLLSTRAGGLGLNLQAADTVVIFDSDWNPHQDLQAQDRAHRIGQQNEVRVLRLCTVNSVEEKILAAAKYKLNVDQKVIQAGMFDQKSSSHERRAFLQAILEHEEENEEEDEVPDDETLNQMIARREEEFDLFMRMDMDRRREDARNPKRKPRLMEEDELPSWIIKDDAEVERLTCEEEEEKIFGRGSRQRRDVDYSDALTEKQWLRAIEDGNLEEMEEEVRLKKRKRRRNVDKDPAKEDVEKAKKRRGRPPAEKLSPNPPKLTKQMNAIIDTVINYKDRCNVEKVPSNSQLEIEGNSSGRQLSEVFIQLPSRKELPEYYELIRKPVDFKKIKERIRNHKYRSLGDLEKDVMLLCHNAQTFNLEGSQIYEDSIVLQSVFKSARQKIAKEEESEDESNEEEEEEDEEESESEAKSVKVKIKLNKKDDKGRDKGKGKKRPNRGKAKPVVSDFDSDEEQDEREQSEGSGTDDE
Chain of von Hippel-Lindau disease tumor suppressor/SWI/SNF-related matrix-associated actin-dependent regulator of chromatin subfamily A member 4 (Homo sapiens) (P40337 whole entry, looked up): as the sequence (P40337 whole entry) above
Chain of von Hippel-Lindau disease tumor suppressor/SWI/SNF-related matrix-associated actin-dependent regulator of chromatin subfamily A member 4 (Homo sapiens) (P51532 whole entry, looked up): as the sequence (P51532 whole entry) above
Chain of von Hippel-Lindau disease tumor suppressor/SWI/SNF-related matrix-associated actin-dependent regulator of chromatin subfamily A member 2 (P51531 whole entry): as the sequence (P51531 whole entry, looked up) above
Chain of von Hippel-Lindau disease tumor suppressor/SWI/SNF-related matrix-associated actin-dependent regulator of chromatin subfamily A member 2 (P40337 whole entry): as the sequence (P40337 whole entry) above

SMILES | Activity [1] [%] | Activity [2] [%] | EC50 [3] [nM] | EC50 [4] [nM]
Cc1ncsc1-c1ccc([C@H](C)NC(=O)[C@@H]2C[C@@H](O)CN2C(=O)[C@@H](NC(=O)CC2CCN(c3ccc(-c4cnnc(-c5ccccc5O)c4)cc3)CC2)C(C)(C)C)cc1 | 97 | 40 | < 250 | < 250
Cc1ncsc1-c1ccc([C@H](C)NC(=O)[C@@H]2C[C@@H](O)CN2C(=O)[C@@H](NC(=O)CN2CCN(c3ccc(-c4cnnc(-c5ccccc5O)c4)cn3)CC2)C(C)(C)C)cc1 | 94 | 0 | < 250 | < 250
Cc1ncsc1-c1ccc([C@H](C)NC(=O)[C@@H]2C[C@@H](O)CN2C(=O)[C@@H](NC(=O)C2CCN(c3ccc(-c4cnnc(-c5ccccc5O)c4)cc3)CC2)C(C)(C)C)cc1 | 76 | 0 | – | –

The next lines start with the values.

Activity [1] [%] | Activity [2] [%] | EC50 [3] [nM] | EC50 [4] [nM] | SMILES
94 | 0 | < 250 | < 250 | Cc1ncsc1-c1ccc([C@H](C)NC(=O)[C@@H]2C[C@@H](O)CN2C(=O)[C@@H](NC(=O)CN2CCN(c3ccc(-c4cnnc(-c5ccccc5O)c4)cc3)CC2)C(C)(C)C)cc1
75 | 0 | – | – | Cc1ncsc1-c1ccc(CNC(=O)[C@@H]2C[C@@H](O)CN2C(=O)[C@@H](NC(=O)CN2CCC(c3ccc(-c4cnnc(-c5ccccc5O)c4)cc3)CC2)C(C)(C)C)cc1
91 | 0 | < 250 | < 250 | Cc1ncsc1-c1ccc([C@H](C)NC(=O)[C@@H]2C[C@@H](O)CN2C(=O)[C@@H](NC(=O)CN2CCC(c3ccc(-c4cnnc(-c5ccccc5O)c4)cc3)CC2)C(C)(C)C)cc1
